# In PubChem BioAssay (NCI):
#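 Test compounds were applied to cells in 96-well plates for 48 hours at 5 doses. TGI: total growth inhibition.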
# Assays:
# Assay in all cases: DTP human tumour cell line panel, 48 h
# LOX IMVI melanoma = test system: LOX IMVI melanoma
# K-562 leukemia = test system: K-562 leukemia
# SN12C renal = test system: SN12C renal
# COLO 205 colon = test system: COLO 205 colon
# HT29 colon = test system: HT29 colon
# SW-620 colon = test system: SW-620 colon
# A498 renal = test system: A498 renal
# 786-0 renal = test system: 786-0 renal
# NCI-H460 lung = test system: NCI-H460 lung
# BT-549 breast = test system: BT-549 breast
# CAKI-1 renal = test system: CAKI-1 renal
# OVCAR-3 ovarian = test system: OVCAR-3 ovarian
# HS 578T breast = test system: HS 578T breast
# SF-295 CNS = test system: SF-295 CNS
# DU-145 prostate = test system: DU-145 prostate
# KM12 colon = test system: KM12 colon
# SK-OV-3 ovarian = test system: SK-OV-3 ovarian
# MDA-N = test system: MDA-N
# EKVX NSCLC = test system: EKVX NSCLC
# NCI-H522 lung = test system: NCI-H522 lung
# MALME-3M melanoma = test system: MALME-3M melanoma
# SK-MEL-5 melanoma = test system: SK-MEL-5 melanoma
# M14 melanoma = test system: M14 melanoma
# HCC-2998 colon = test system: HCC-2998 colon
# ACHN renal = test system: ACHN renal
# SNB-19 CNS = test system: SNB-19 CNS
# MDA-MB-231 breast = test system: MDA-MB-231 breast
# PC-3 prostate = test system: PC-3 prostate
# IGROV1 ovarian = test system: IGROV1 ovarian
# HOP-92 NSCLC = test system: HOP-92 NSCLC
# UACC-62 melanoma = test system: UACC-62 melanoma
# SR leukemia = test system: SR leukemia
# HOP-62 NSCLC = test system: HOP-62 NSCLC
# OVCAR-5 ovarian = test system: OVCAR-5 ovarian
# OVCAR-8 ovarian = test system: OVCAR-8 ovarian
# HL-60(TB) leukemia = test system: HL-60(TB) leukemia
# OVCAR-4 ovarian = test system: OVCAR-4 ovarian
# SK-MEL-28 melanoma = test system: SK-MEL-28 melanoma
# CCRF-CEM leukemia = test system: CCRF-CEM leukemia
# MOLT-4 leukemia = test system: MOLT-4 leukemia
# MCF7 breast = test system: MCF7 breast
# HCT-15 colon = test system: HCT-15 colon
# SK-MEL-2 melanoma = test system: SK-MEL-2 melanoma
# SF-268 CNS = test system: SF-268 CNS
# A549 NSCLC = test system: A549 NSCLC
# HCT-116 colon = test system: HCT-116 colon
# MDA-MB-435 = test system: MDA-MB-435
# RXF 393 renal = test system: RXF 393 renal
# NCI-H23 lung = test system: NCI-H23 lung
# UACC-257 melanoma = test system: UACC-257 melanoma
# T-47D breast = test system: T-47D breast
# RPMI-8226 leukemia = test system: RPMI-8226 leukemia
# NCI/ADR-RES ovarian = test system: NCI/ADR-RES ovarian
# SNB-75 CNS = test system: SNB-75 CNS
# UO-31 renal = test system: UO-31 renal
# NCI-H226 lung = test system: NCI-H226 lung
# U251 CNS = test system: U251 CNS
# DMS 273 small cell lung = test system: DMS 273 small cell lung
# TK-10 renal = test system: TK-10 renal
# SF-539 CNS = test system: SF-539 CNS
# HOP-18 NSCLC = test system: HOP-18 NSCLC
# M19-MEL melanoma = test system: M19-MEL melanoma
# DLD-1 colon = test system: DLD-1 colon
# XF 498 CNS = test system: XF 498 CNS
# KM20L2 colon = test system: KM20L2 colon
# SNB-78 CNS = test system: SNB-78 CNS
compound,measurement,setting,value
COc1ccc2cc(NC(=O)N/N=C\c3ccc([N+](=O)[O-])cc3)ccc2c1,TGI,LOX IMVI melanoma,> 100 µM
same,TGI,K-562 leukemia,> 100 µM
same,TGI,SN12C renal,> 100 µM
same,TGI,COLO 205 colon,> 100 µM
same,TGI,HT29 colon,> 100 µM
same,TGI,SW-620 colon,> 100 µM
same,TGI,A498 renal,> 100 µM
same,TGI,786-0 renal,> 100 µM
same,TGI,NCI-H460 lung,> 100 µM
same,TGI,BT-549 breast,76.5 µM
same,TGI,CAKI-1 renal,> 100 µM
same,TGI,OVCAR-3 ovarian,> 100 µM
same,TGI,HS 578T breast,> 100 µM
same,TGI,SF-295 CNS,> 100 µM
same,TGI,DU-145 prostate,> 100 µM
same,TGI,KM12 colon,> 100 µM
same,TGI,SK-OV-3 ovarian,> 100 µM
same,TGI,MDA-N,> 100 µM
same,TGI,EKVX NSCLC,> 100 µM
same,TGI,NCI-H522 lung,51 µM
same,TGI,MALME-3M melanoma,> 100 µM
same,TGI,SK-MEL-5 melanoma,> 100 µM
same,TGI,M14 melanoma,> 100 µM
same,TGI,HCC-2998 colon,> 100 µM
same,TGI,ACHN renal,> 100 µM
same,TGI,SNB-19 CNS,47.9 µM
same,TGI,MDA-MB-231 breast,> 100 µM
same,TGI,PC-3 prostate,> 100 µM
same,TGI,IGROV1 ovarian,> 100 µM
same,TGI,HOP-92 NSCLC,> 100 µM
same,TGI,UACC-62 melanoma,> 100 µM
same,TGI,SR leukemia,> 100 µM
same,TGI,HOP-62 NSCLC,48.5 µM
same,TGI,OVCAR-5 ovarian,> 100 µM
same,TGI,OVCAR-8 ovarian,87.3 µM
same,TGI,HL-60(TB) leukemia,> 100 µM
same,TGI,OVCAR-4 ovarian,5.74 µM
same,TGI,SK-MEL-28 melanoma,> 100 µM
same,TGI,CCRF-CEM leukemia,> 100 µM
same,TGI,MOLT-4 leukemia,> 100 µM
same,TGI,MCF7 breast,> 100 µM
same,TGI,HCT-15 colon,> 100 µM
same,TGI,SK-MEL-2 melanoma,> 100 µM
same,TGI,SF-268 CNS,55.4 µM
same,TGI,A549 NSCLC,> 100 µM
same,TGI,HCT-116 colon,> 100 µM
same,TGI,MDA-MB-435,> 100 µM
same,TGI,RXF 393 renal,45.1 µM
same,TGI,NCI-H23 lung,77.9 µM
same,TGI,UACC-257 melanoma,> 100 µM
same,TGI,T-47D breast,> 100 µM
same,TGI,RPMI-8226 leukemia,> 100 µM
same,TGI,NCI/ADR-RES ovarian,97.2 µM
same,TGI,SNB-75 CNS,65.4 µM
same,TGI,UO-31 renal,46.4 µM
same,TGI,NCI-H226 lung,> 100 µM
same,TGI,U251 CNS,> 100 µM
O=C1/C(=C/c2ccc(O)c(O)c2)CCC/C1=C\c1ccc(O)c(O)c1,TGI,LOX IMVI melanoma,7.68 µM
same,TGI,K-562 leukemia,> 60.1 µM
same,TGI,SN12C renal,24.9 µM
same,TGI,COLO 205 colon,> 64 µM
same,TGI,HT29 colon,21.2 µM
same,TGI,DMS 273 small cell lung,7.2 µM
same,TGI,SW-620 colon,23.3 µM
same,TGI,A498 renal,21.1 µM
same,TGI,TK-10 renal,14.9 µM
same,TGI,786-0 renal,15.5 µM
same,TGI,SF-539 CNS,8.99 µM
same,TGI,NCI-H460 lung,20.1 µM
same,TGI,BT-549 breast,> 33.9 µM
same,TGI,CAKI-1 renal,12.5 µM
same,TGI,OVCAR-3 ovarian,17.8 µM
same,TGI,HS 578T breast,> 39.9 µM
same,TGI,SF-295 CNS,22.1 µM
same,TGI,DU-145 prostate,17.5 µM
same,TGI,KM12 colon,13.8 µM
same,TGI,SK-OV-3 ovarian,20.7 µM
same,TGI,MDA-N,14.6 µM
same,TGI,EKVX NSCLC,32.4 µM
same,TGI,NCI-H522 lung,2.22 µM
same,TGI,MALME-3M melanoma,7.05 µM
same,TGI,SK-MEL-5 melanoma,3.81 µM
same,TGI,M14 melanoma,18.4 µM
same,TGI,HCC-2998 colon,11.5 µM
same,TGI,HOP-18 NSCLC,10.4 µM
same,TGI,ACHN renal,11 µM
same,TGI,M19-MEL melanoma,12.3 µM
same,TGI,SNB-19 CNS,29.1 µM
same,TGI,MDA-MB-231 breast,37.4 µM
same,TGI,PC-3 prostate,19 µM
same,TGI,IGROV1 ovarian,15.9 µM
same,TGI,HOP-92 NSCLC,13.2 µM
same,TGI,UACC-62 melanoma,30.2 µM
same,TGI,SR leukemia,> 89.8 µM
same,TGI,DLD-1 colon,7.22 µM
same,TGI,HOP-62 NSCLC,14.5 µM
same,TGI,OVCAR-5 ovarian,31.2 µM
same,TGI,OVCAR-8 ovarian,4.42 µM
same,TGI,XF 498 CNS,9.93 µM
same,TGI,HL-60(TB) leukemia,> 27.9 µM
same,TGI,OVCAR-4 ovarian,41.9 µM
same,TGI,SK-MEL-28 melanoma,11.8 µM
same,TGI,CCRF-CEM leukemia,> 25.4 µM
same,TGI,MOLT-4 leukemia,> 44 µM
same,TGI,MCF7 breast,> 48.2 µM
same,TGI,HCT-15 colon,33.3 µM
same,TGI,SK-MEL-2 melanoma,13.1 µM
same,TGI,SF-268 CNS,14.7 µM
same,TGI,A549 NSCLC,> 50.2 µM
same,TGI,KM20L2 colon,23.8 µM
same,TGI,HCT-116 colon,7.17 µM
same,TGI,MDA-MB-435,16.7 µM
same,TGI,RXF 393 renal,9.5 µM
same,TGI,NCI-H23 lung,11.3 µM
same,TGI,UACC-257 melanoma,17.4 µM
same,TGI,T-47D breast,> 48.1 µM
same,TGI,RPMI-8226 leukemia,> 44.7 µM
same,TGI,NCI/ADR-RES ovarian,23.8 µM
same,TGI,SNB-75 CNS,12.9 µM
same,TGI,UO-31 renal,4.34 µM
same,TGI,SNB-78 CNS,8.19 µM
same,TGI,NCI-H226 lung,9.43 µM
same,TGI,U251 CNS,15.7 µM
Cc1ccc(N=NC(=Nc2ccccc2)c2ccc(N(CCC#N)CCC#N)cc2)cc1,TGI,K-562 leukemia,> 100 µM
same,TGI,SN12C renal,> 100 µM
same,TGI,COLO 205 colon,> 100 µM
same,TGI,HT29 colon,> 100 µM
same,TGI,SW-620 colon,> 100 µM
same,TGI,A498 renal,> 100 µM
same,TGI,TK-10 renal,74.9 µM
same,TGI,786-0 renal,> 100 µM
same,TGI,SF-539 CNS,> 100 µM
same,TGI,NCI-H460 lung,45.5 µM
same,TGI,BT-549 breast,47.3 µM
same,TGI,CAKI-1 renal,> 100 µM
same,TGI,OVCAR-3 ovarian,75.1 µM
same,TGI,HS 578T breast,> 100 µM
same,TGI,SF-295 CNS,92.4 µM
same,TGI,DU-145 prostate,> 100 µM
same,TGI,KM12 colon,> 100 µM
same,TGI,SK-OV-3 ovarian,> 100 µM
same,TGI,MDA-N,> 100 µM
same,TGI,EKVX NSCLC,> 100 µM
same,TGI,NCI-H522 lung,45.2 µM
same,TGI,SK-MEL-5 melanoma,47 µM
same,TGI,M14 melanoma,> 100 µM
same,TGI,HCC-2998 colon,48.6 µM
same,TGI,ACHN renal,> 100 µM
same,TGI,SNB-19 CNS,> 100 µM
same,TGI,MDA-MB-231 breast,55.8 µM
same,TGI,PC-3 prostate,59.9 µM
same,TGI,IGROV1 ovarian,57.1 µM
same,TGI,HOP-92 NSCLC,64.8 µM
same,TGI,UACC-62 melanoma,58.9 µM
same,TGI,SR leukemia,> 100 µM
same,TGI,HOP-62 NSCLC,> 100 µM
same,TGI,OVCAR-5 ovarian,> 100 µM
same,TGI,OVCAR-8 ovarian,> 100 µM
same,TGI,OVCAR-4 ovarian,> 100 µM
same,TGI,SK-MEL-28 melanoma,> 100 µM
same,TGI,CCRF-CEM leukemia,> 100 µM
same,TGI,MOLT-4 leukemia,> 100 µM
same,TGI,MCF7 breast,79.2 µM
same,TGI,HCT-15 colon,> 100 µM
same,TGI,SK-MEL-2 melanoma,48 µM
same,TGI,SF-268 CNS,> 100 µM
same,TGI,A549 NSCLC,80.7 µM
same,TGI,HCT-116 colon,> 100 µM
same,TGI,MDA-MB-435,> 100 µM
same,TGI,RXF 393 renal,80.1 µM
same,TGI,NCI-H23 lung,43.9 µM
same,TGI,UACC-257 melanoma,54 µM
same,TGI,T-47D breast,> 100 µM
same,TGI,RPMI-8226 leukemia,> 100 µM
same,TGI,NCI/ADR-RES ovarian,> 100 µM
same,TGI,SNB-75 CNS,> 100 µM
same,TGI,UO-31 renal,> 100 µM
same,TGI,NCI-H226 lung,> 100 µM
same,TGI,U251 CNS,71.2 µM
